Settings: for kinematic viscosity: Liquid

C=C(F)C(F)(F)F [2,3,3,3-tetrafluoro-1-propene]
light scattering
Settings	kinematic viscosity [m2/s]	surface tension liquid-gas [mN/m]
293.15 K	1.44e-07	6.82
303.09 K	1.32e-07	5.71
313.2 K	1.22e-07	4.6
323.19 K	1.13e-07	3.55
333.14 K	1.02e-07	2.55
343.11 K	8.99e-08	1.64
353.08 K	8.2e-08	0.81
358.05 K	7.7e-08	0.46
363.05 K	7e-08	0.15
365.05 K	6.24e-08	–

FCC(F)(F)F [1,1,1,2-tetrafluoroethane]
surface light scattering
Settings	kinematic viscosity [m2/s]	surface tension liquid-gas [mN/m]
302.99 K	1.55e-07	7.45
312.86 K	1.41e-07	6.19
322.92 K	1.28e-07	4.95
332.92 K	1.17e-07	3.79
342.9 K	1.07e-07	2.68
352.89 K	9.79e-08	1.65
363.27 K	8.56e-08	0.73
368.26 K	7.9e-08	0.34

F/C=C/C(F)(F)F [trans-1,3,3,3-tetrafluoropropene]
surface light scattering
Settings	kinematic viscosity [m2/s]	surface tension liquid-gas [mN/m]
295.23 K	1.78e-07	8.88
303.19 K	1.61e-07	7.91
313.21 K	1.43e-07	6.66
323.19 K	1.32e-07	5.48
333 K	1.19e-07	4.36
343.05 K	1.13e-07	3.3
353 K	1.05e-07	2.26
363.12 K	9.24e-08	1.35
373.14 K	8.17e-08	0.54
